Where two headings read alike, the source gives them in different places.
Molecular target: human NLRP3 (Homo sapiens (Human), UniProt Q96P20)
Test: Scintillation Proximity (SPA) NLRP3 Assay: displacement of 3H-MCC950
Format: binding
Details: read-out: SPA IC50

Chain of human NLRP3 (Q96P20 whole entry): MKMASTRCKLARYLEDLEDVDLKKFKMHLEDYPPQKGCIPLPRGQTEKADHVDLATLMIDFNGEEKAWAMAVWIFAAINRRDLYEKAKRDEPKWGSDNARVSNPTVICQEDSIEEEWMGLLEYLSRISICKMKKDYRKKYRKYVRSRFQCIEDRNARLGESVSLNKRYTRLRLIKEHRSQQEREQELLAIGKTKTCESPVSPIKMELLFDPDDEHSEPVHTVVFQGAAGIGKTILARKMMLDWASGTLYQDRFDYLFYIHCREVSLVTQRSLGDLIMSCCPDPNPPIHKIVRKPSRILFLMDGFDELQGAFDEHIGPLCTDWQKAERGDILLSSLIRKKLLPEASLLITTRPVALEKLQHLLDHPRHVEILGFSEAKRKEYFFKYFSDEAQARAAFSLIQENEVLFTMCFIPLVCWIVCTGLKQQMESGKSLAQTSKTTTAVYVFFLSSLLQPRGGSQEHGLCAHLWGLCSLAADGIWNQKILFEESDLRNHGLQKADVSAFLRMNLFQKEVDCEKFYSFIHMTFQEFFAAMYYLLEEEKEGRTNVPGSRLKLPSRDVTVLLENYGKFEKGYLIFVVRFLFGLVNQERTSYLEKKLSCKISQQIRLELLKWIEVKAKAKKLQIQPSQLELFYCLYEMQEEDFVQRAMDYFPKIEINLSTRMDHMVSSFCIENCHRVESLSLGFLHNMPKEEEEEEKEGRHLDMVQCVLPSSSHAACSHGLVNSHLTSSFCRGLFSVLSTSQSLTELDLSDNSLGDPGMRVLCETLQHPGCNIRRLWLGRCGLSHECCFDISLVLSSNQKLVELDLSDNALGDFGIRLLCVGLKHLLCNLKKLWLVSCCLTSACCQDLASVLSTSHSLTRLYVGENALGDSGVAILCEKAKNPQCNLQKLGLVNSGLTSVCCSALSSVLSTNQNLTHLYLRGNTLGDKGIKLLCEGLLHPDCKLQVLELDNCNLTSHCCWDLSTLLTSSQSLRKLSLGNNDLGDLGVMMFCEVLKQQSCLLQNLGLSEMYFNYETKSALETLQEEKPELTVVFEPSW

| IC50 (displacement of 3H-MCC950) [µM] | IC50 [µM] | SMILES |
| --- | --- | --- |
| < 1 |  | C[C@H]1CCN(c2nnn[nH]2)C[C@@H](NC(=O)C2(c3ccc(C(F)(F)F)cc3O)CC2)C1 (single isomer, unassigned) [63D*] |
| 1 to 10 |  | C[C@@H]1CCN(c2nnn[nH]2)C[C@@H](NC(=O)C2(c3ccc(OC(F)F)cc3F)CC2)C1 (single isomer, unassigned) [3B*] |
| 10 to 50 |  | C[C@H]1CCN(c2nnn[nH]2)C[C@H](NC(=O)C2(c3ccc(C(F)(F)F)cc3O)CC2)C1 (single isomer, unassigned) [63C*] |
| 1 to 10 |  | C[C@H]1CCN(c2nnn[nH]2)C[C@@H](NC(=O)C2(c3ccc(OC(F)(F)F)cc3O)CC2)C1 (single isomer, unassigned) [62D*] |
| < 1 |  | C[C@H]1CC[C@@H](NC(=O)C2(c3ccc(Cl)cc3)CC2)CN(c2nnn[nH]2)C1 (single isomer, unassigned) [36A*, 1-(4-chlorophenyl)-N-(6-methyl-1-(1H-tetrazol-5-yl)azepan-3-yl)cyclopropane-1-carboxamide] |
| 50 to 100 |  | C[C@@H]1CC[C@@H](NC(=O)C2(c3ccc(C4CC4)cc3O)CC2)CN(c2nnn[nH]2)C1 (single isomer, unassigned) [91C*] |
| 10 to 50 |  | C[C@@H]1CCN(c2nnn[nH]2)C[C@@H](NC(=O)C2(c3ccc(C(F)(F)F)c(OC(F)F)c3)CC2)C1 (single isomer, unassigned) [54B*] |
| < 1 |  | C[C@H]1CC[C@@H](NC(=O)C2(c3ccc(C4CC4)cc3O)CC2)CN(c2nnn[nH]2)C1 (single isomer, unassigned) [91A*] |
| 50 to 100 |  | C[C@H]1CCN(c2nnn[nH]2)C[C@H](NC(=O)C2(c3cnc(Cl)cc3O)CC2)C1 (single isomer, unassigned) [99C*] |
| 1 to 10 |  | CC(C)c1ccc(C2(C(=O)N[C@H]3C[C@H](C)CCN(c4nnn[nH]4)C3)CC2)c(O)c1 (single isomer, unassigned) [27B*, 1-(2-hydroxy-4-isopropylphenyl)-N-(5-methyl-1-(1H-tetrazol-5-yl)azepan-3-yl)cyclopropane-1-carboxamide] |
| 10 to 50 |  | Cc1ccc(C2(C(=O)N[C@@H]3C[C@@H](C)CCN(c4nnn[nH]4)C3)CC2)c(O)c1 (single isomer, unassigned) [67C*] |
| 10 to 50 |  | Cc1ccc(C2(C(=O)N[C@@H]3C[C@@H](C)CCN(c4nnn[nH]4)C3)CC2)c(O)c1F (single isomer, unassigned) [22C*, 1-(3-fluoro-2-hydroxy-4-methylphenyl)-N-(5-methyl-1-(1H-tetrazol-5-yl)azepan-3-yl)cyclopropane-1-carboxamide] |
| > 100 |  | O=C(N[C@@H]1C[C@H](F)CN(c2nnn[nH]2)C1)C1(c2ccc(Cl)cc2)CC1 [Compound 44A, 1-(4-chlorophenyl)-N-[(3R,5S)-5-fluoro-1-(1H-tetrazol-5-yl)-3-piperidyl]cyclopropanecarboxamide] |
| > 100 |  | C[C@@H]1CC[C@H](NC(=O)C2(c3ccc(Cl)cc3)CC2)CN(c2nnn[nH]2)C1 (single isomer, unassigned) [36D*, 1-(4-chlorophenyl)-N-(6-methyl-1-(1H-tetrazol-5-yl)azepan-3-yl)cyclopropane-1-carboxamide] |
| 1 to 10 |  | C[C@H]1CCN(c2nnn[nH]2)C[C@@H](NC(=O)C2(c3ccc(OC(F)F)cc3F)CC2)C1 (single isomer, unassigned) [3D*] |
| > 100 |  | C[C@H]1CCN(c2nnn[nH]2)C[C@H](NC(=O)C2(c3ccc(C(F)(F)F)cc3F)CC2)C1 (single isomer, unassigned) [68C*] |

| IC50 (displacement of 3H-MCC950) [µM] | IC50 [µM] | SMILES |
| --- | --- | --- |
| 50 to 100 |  | C[C@H]1CCN(c2nnn[nH]2)C[C@H](NC(=O)C2(c3ccc(C4CC4)c(F)c3O)CC2)C1 (single isomer, unassigned) [32C*, 1-(4-cyclopropyl-3-fluoro-2-hydroxyphenyl)-N-(5-methyl-1-(1H-tetrazol-5-yl)azepan-3-yl)cyclopropane-1-carboxamide] |
| 10 to 50 |  | C[C@H]1CCN(c2nnn[nH]2)C[C@@H](NC(=O)C2(c3ccc(C(F)(F)F)c(OC(F)F)c3)CC2)C1 (single isomer, unassigned) [54D*] |
| 10 to 50 |  | O=C(N[C@H]1CN(c2nnn[nH]2)CC[C@@H]1F)C1(c2ccc(Cl)cc2)CC1 [Compound 50C, 1-(4-chlorophenyl)-N-[(3S,4S)-4-fluoro-1-(1H-tetrazol-5-yl)-3-piperidyl]cyclopropanecarboxamide] |
| 10 to 50 |  | C[C@@H]1CCN(c2nnn[nH]2)C[C@@H](NC(=O)C2(c3ccc(Cl)c(F)c3)CC2)C1 (single isomer, unassigned) [65B*] |
| 1 to 10 |  | O=C(NC1CC(C2CC2)CN(c2nnn[nH]2)C1)C1(c2ccc(Cl)cc2)CC1 (single isomer, unassigned) [Rac-13A*/D*, 1-(4-chlorophenyl)-N-(5-cyclopropyl-1-(1H-tetrazol-5-yl)piperidin-3-yl)cyclopropane-1-carboxamide] |
| > 100 |  | C[C@H]1CCN(c2nnn[nH]2)C[C@H](NC(=O)C2(c3ccc(Cl)nc3O)CC2)C1 (single isomer, unassigned) [100C*] |
|  | > 500 | Cn1nnnc1-c1cccc(NC(=O)C2(c3ccc(Cl)cc3)CC2)c1 [Comparative Example E1, 1-(4-chlorophenyl)-N-(3-(1-methyl-1H-tetrazol-5-yl)phenyl)cyclopropane-1-carboxamide, reference compound] |
| 10 to 50 |  | C[C@H]1CCN(c2nnn[nH]2)C[C@@H](NC(=O)C2(c3ccc(SC(F)(F)F)cc3)CC2)C1 (single isomer, unassigned) [69D*] |
| 50 to 100 |  | C[C@H]1CCN(c2nnn[nH]2)C[C@H](NC(=O)C2(c3ccc(Cl)cc3F)CC2)C1 (single isomer, unassigned) [56C*] |
| > 100 |  | C[C@@H]1CC[C@@H](NC(=O)C2(c3ccc(Cl)cc3)CC2)CN1c1nnn[nH]1 [Compound 41C, 1-(4-chlorophenyl)-N-[(3R,6R)-6-methyl-1-(1H-tetrazol-5-yl)-3-piperidyl]cyclopropanecarboxamide] |
| 10 to 50 |  | C[C@H]1CCN(c2nnn[nH]2)C[C@@H](NC(=O)C2(c3ccc(Cl)cc3F)CC2)C1 (single isomer, unassigned) [56D*] |
| > 100 |  | C[C@H]1CCN(c2nnn[nH]2)C[C@@H](NC(=O)C2(c3ccc(Cl)nc3O)CC2)C1 (single isomer, unassigned) [100D*] |
| 10 to 50 |  | C[C@H]1CCN(c2nnn[nH]2)C[C@@H](NC(=O)C2(c3ccc(OC(F)(F)F)cc3)CC2)C1 (single isomer, unassigned) [57D*] |
| 1 to 10 |  | C[C@H]1C[C@@H](NC(=O)C2(c3cnc(C(F)(F)F)cc3O)CC2)CN(c2nnn[nH]2)C1 [Compound 26A, 1-(4-hydroxy-6-(trifluoromethyl)pyridin-3-yl)-N-((3R,5S)-5-methyl-1-(1H-tetrazol-5-yl)piperidin-3-yl)cyclopropane-1-carboxamide] |
| 1 to 10 |  | C[C@@H]1CCN(c2nnn[nH]2)C[C@@H](NC(=O)C2(c3ccc(C4CC4)c(F)c3O)CC2)C1 (single isomer, unassigned) [32B*, 1-(4-cyclopropyl-3-fluoro-2-hydroxyphenyl)-N-(5-methyl-1-(1H-tetrazol-5-yl)azepan-3-yl)cyclopropane-1-carboxamide] |

| SMILES | IC50 (displacement of 3H-MCC950) [µM] | IC50 [µM] |
| --- | --- | --- |
| O=C(N[C@H]1CC[C@@H]2CC[C@H]1N2c1nnn[nH]1)C1(c2ccc(C(F)(F)F)cc2O)CC1 (single isomer, unassigned) [34B*] | 1 to 10 |  |
| C[C@H]1C[C@@H](NC(=O)C2(c3ccc(OC(F)(F)F)cc3)CC2)[C@@H]2CC[C@H]1N2c1nnn[nH]1 [82C*, N-((1S,2R,4S,5R)-4-methyl-8-(1H-tetrazol-5-yl)-8-azabicyclo[3.2.1]octan-2-yl)-1-(4-(trifluoromethoxy)phenyl)cyclopropane-1-carboxamide] | > 100 |  |
| Cc1ccc(C2(C(=O)N[C@H]3C[C@@H](C)[C@@H]4CC[C@H]3N4c3nnn[nH]3)CC2)cc1 [87B*, N-((1R,2S,4R,5S)-4-methy1-8-(1H-tetrazol-5-yl)-8-azabicyclo[3.2.1]octan-2-yl)-1-(p-tolyl)cyclopropane-1-carboxamide] | 10 to 50 |  |
| C[C@H]1C[C@H](NC(=O)C2(c3ccc(C(F)F)cc3)CC2)[C@@H]2CC[C@H]1N2c1nnn[nH]1 [86D*, 1-(4-(difluoromethyl)phenyl)-N-((1S,2S,4S,5R)-4-methyl-8-(1H-tetrazol-5-yl)-8-azabicyclo[3.2.1]octan-2-yl)cyclopropane-1-carboxamide] | > 100 |  |
| C[C@H]1C[C@H](NC(=O)C2(c3ccc(Cl)cc3)CC2)[C@@H]2CC[C@H]1N2c1nnn[nH]1 [80D*, 1-(4-chlorophenyl)-N-((1S,2S,4S,5R)-4-methyl-8-(1H-tetrazol-5-yl)-8-azabicyclo[3.2.1]octan-2-yl)cyclopropane-1-carboxamide] | 50 to 100 |  |
| C[C@H]1C[C@@H](NC(=O)C2(c3ccc(OC(F)F)cc3)CC2)[C@@H]2CC[C@H]1N2c1nnn[nH]1 (single isomer, unassigned) [35C*] | > 100 |  |
| C[C@H]1C[C@H](NC(=O)C2(c3ccc(SC(F)F)cc3)CC2)[C@@H]2CC[C@H]1N2c1nnn[nH]1 [85D*, 1-(4-((difluoromethyl)thio)phenyl)-N-((1S,2S,4S,5R)-4-methy1-8-(1H-tetrazol-5-yl)-8-azabicyclo[3.2.1]octan-2-yl)cyclopropane-1-carboxamide] | > 100 |  |
| C[C@H]1C[C@H](NC(=O)C2(c3ccc(C4CC4(F)F)cc3)CC2)[C@@H]2CC[C@H]1N2c1nnn[nH]1 (single isomer, unassigned) [37D*] | > 100 |  |
| C[C@H]1C[C@H](NC(=O)C2(c3ccc(OC(F)F)cc3)CC2)[C@@H]2CC[C@H]1N2c1nnn[nH]1 (single isomer, unassigned) [35D*] | 10 to 50 |  |
| O=C(N[C@@H]1C[C@H](C(F)(F)F)[C@H]2CC[C@@H]1N2c1nnn[nH]1)C1(c2ccc(Cl)cc2)CC1 (single isomer, unassigned) [103C*] | > 100 |  |
| C[C@@H]1C[C@H](NC(=O)C2(c3ccc(OC(F)F)cc3)CC2)[C@@H]2CC[C@H]1N2c1nnn[nH]1 (single isomer, unassigned) [35H*] | > 100 |  |
| C[C@H]1C[C@@H](NC(=O)C2(c3ccc(C4CC4)c(F)c3O)CC2)[C@@H]2CC[C@H]1N2c1nnn[nH]1 [83C*, 1-(4-cyclopropy1-3-fluoro-2-hydroxyphenyl)-N-((1S,2R,4S,5R)-4-methy1-8-(1H-tetrazol-5-yl)-8-azabicyclo[3.2.1]octan-2-yl)cyclopropane-1-carboxamide] | > 100 |  |
